Laboratory results published in patent US6432883B1, “Methods of treating plants with glycolic acid” (Emerald BioAgriculture Corporation, priority 2000, dated 2002).

Key:
Sclerotinia minor = experiment: Colony radius of plant pathogen on amended potato dextrose agar; format: cell-based; conditions: in PDA, 4 days, about 23° C., FIG. 5
Excerpt: Sclerotinia minor culture SaM-18 was received from Krishna Subbarro, Ph.D., Univ. Calif., Davis. Potato dextrose agar (PDA) powder was purchased from Baltimore Biological Laboratory, Inc. (BBL), ammonium glycolate and glycolic acid from DuPont Specialty Chemicals and BreakThru® surfactant from Goldschmidt Chemical Corp.
PDA was made, poured into sterile disposable petri dishes (100×15 mm) and inoculated with S. minor sclerotia to start new cultures on day zero. These cultures had reached an appropriate stage of maturation for use for use in the test after two weeks of growth. Multiple 1 liter containers of PDA were made and autoclaved on day 14. These PDA containers remained in the circulating water bath at 46° C. until the solutions were ready for addition (about 2 hrs.). The glycolic acid-containing compositions were added to the 46° C. PDA through a syringe-tip 0.2 μm-pore sterile filtration disc in a positive laminar-flow sterile hood and thoroughly mixed before returning to the 46° C. water bath to await pouring. Stacks of 22 dishes were poured for each medium type and allowed to solidify and cool overnight.
On day 15, soft, white to gray, sclerotial clumps of hyphae were picked from the culture dishes with heat sterilized forceps and one clump was transferred to the center of each test medium dish. Twenty dishes of each inoculated medium were stacked and replaced into the plastic sleeves they were originally packaged in for incubation at room temperature (about 23° C.). After 4 days of growth, some of the cultures had just reached the edges of the medium. The radius of each colony was measure in mm.
Treatments were water controls, 0.05% surfactant controls, 5, 15, 50, 75 and 100 ppm of glycolic acid (F12) and 5, 15, 50, 100 and 750 ppm of ammonia-neutralized glycolic acid (F18; i.e., ammonium glycolate).

cabbage [1] = experiment: Cabbage drought stress: fresh and dry weights; format: in vivo
Experimental: Market Prize, F1 cabbage seed, lot 88955, as described in example 7, was treated identically as in example 7, except that drought stress was imposed by withholding water 7 days following the second spray and continuing to withhold water for 13 sequential days thereafter. Drought tolerance was assessed by measuring both the fresh and dried weights of the plants.

cabbage [2] = experiment: Cabbage plant growth stimulation: fresh and dry weights; format: in vivo; conditions: 5, 15 or 50 ppm spray, FIGS. 1 and 2
Experimental: Market Prize, F1 cabbage seed, lot 88955, was purchased from Harris Seeds, Inc. (Rochester, N.Y.) and grown 2 plants per 4″×4″×4″ pot, 1 pot per experimental unit and 6 experimental units per each of 4 replications. The plants were spray-treated first at 2 true leaves and again 7 days later with 8 ml solution per pot.
The treatments included a non-treated control (NTC), 0.05% Breakthru® (a silicone-based surfactant obtained from Goldschmidt Chemical, Hopewell, Va.) control, and 5, 15 or 50 ppm of either Glypure® (F12; 99% high purity crystalline glycolic acid), or ammonia-neutralized Glypure® [F18; a 50% (w/v) solution made by neutralizing 70% high purity glycolic acid from DuPont with ammonium hydroxide to a pH of 4.4. Growth stimulation was assessed by measuring both the fresh and dry weights of the plants.

N.O=C(O)CO [F18, ammonium glycolate]
Sclerotinia growth compared to equivalent amounts of glycolic acid (Sclerotinia minor): significantly more | growth of Sclerotinia minor (colony radius) compared to controls (Sclerotinia minor): statistically significantly increased the growth | resistance to the effects of drought stress compared to equivalent amounts of F12 (cabbage [1]; 5, 15 and 50 ppm, plant weight): statistically significantly greater effect | fresh weight of the cabbage compared to controls (cabbage [1]; drought, water withheld 13 days, 5, 15, 50 ppm, FIG. 3): statistically significantly increased | dry weight of the cabbage compared to controls (cabbage [1]; drought, water withheld 13 days, 5, 15, 50 ppm, FIG. 4): statistically significantly increased | plant growth (fresh and dry weights) compared to the controls (cabbage [2]): statistically significantly stimulated plant growth | plant growth compared to equivalent amounts of F12 (cabbage [2]): stimulated plant growth to a greater extent
